The values that follow come from EPA's ToxValDB 9.5 (doi:10.2903/j.efsa.2011.2096).

In brackets after ≈: the same amount, converted by molar mass.

One data set relates to Anas platyrhynchos. Particulars: oral, mortality.
In the next data set the test system is Apis mellifera. To be noted: acute; duration: 48 hours; oral; unspecified; mortality.
Another data set concerns Canidae. To be noted: chronic; duration: 1 years; oral; Dog Other; body weight.
Another data set relates to Colinus virginianus. Particulars: mortality.
The test system of another data set is Daphnia magna. Particulars: chronic/long-term; duration: 21 days; reproduction.
A further data set concerns Lepomis macrochirus. To be noted: acute; duration: 96 hours; mortality.
The next data set has as its system Oryctolagus sp. To be noted: developmental; development.
The test system of the next data set is Pimephales promelas. Particulars: chronic/long-term; duration: 21 days.
For the next data set, the system named is Plant. Particulars: chronic/long-term; seedling emergence.
The subject of the next data set is Aphidius rhopalosiphi. Briefly: LR50; higher = less toxic. Particulars: not reported; mortality.
In a further data set the test system is Typhlodromus pyri. Briefly: LR50; higher = less toxic. Particulars: not reported; mortality.

`O=c1c2cc(F)ccc2nc(-n2cncn2)n1-c1ccc(Cl)cc1Cl` [Fluquinconazole]: the LD50 was over 2000 mg/kg-day in the data set on Anas platyrhynchos (acute, unspecified); over 100 µg/piece in the data set on Apis mellifera; over 2000 mg/kg-day in the data set on Colinus virginianus (acute, oral); 112 mg/kg-day with Rattus norvegicus (acute, oral, mortality). Also, the LC50 is over 210 mg/kg-day in the data set with Anas platyrhynchos (short-term, feed); 704 mg/kg-day in the data set with Colinus virginianus (acute, oral, diet); 1.34 µg/mL (≈ 3.56 µM) in the data set with Lepomis macrochirus; over 1000 mg/kg with Tagia sp. (acute, duration: 14 days, mortality). In addition, the NOAEL was found to be 0.2 mg/kg-day with Canidae; 2 mg/kg-day in the data set with Oryctolagus sp.; 0.9 mg/kg-day in the data set with Rattus norvegicus (chronic, mortality); 2 mg/kg-day with Rattus norvegicus (developmental, development). The NOEC in the data set with Colinus virginianus (reproduction developmental) was 1.9 mg/kg-day; in the data set on Daphnia magna, 0.648 mg/L; in the data set on Pimephales promelas, 0.154 mg/L; in the data set on Plant, over 1000 g/ha; with Tagia sp. (chronic/long-term, duration: 56 days), 0.5 mg/kg. The LR50 with Aphidius rhopalosiphi and in the data set with Typhlodromus pyri was under 149 g/ha in each case.
